Assay results published in paper PMC10932284 (International Journal of Molecular Sciences, 2024).
Where two headings read alike, the source gives them in different places.

Columns and labels:
[1] = target: T1, MtCA2 (Mycobacterium tuberculosis, UniProt P9WPJ9); assay: stopped-flow CO2 hydrase assay, MtCA2; type: biochemical; settings: for Selectivity Index (SI) hCA II/MtCA2: ratio of Ki values
T1 construct: made in house
Method: BTDs 2a-2t were submitted to a stopped-flow CO2 hydrase kinetic assay to evaluate the inhibitory profile against the mycobacterial β-CAs MtCA1, MtCA2, MtCA3 (Table 1), in comparison to the inhibitory effect on hCA I and II, which were selected due to their abundance in the human organism and thus off-target in this study.
A stopped-flow instrument from Applied Photophysics was utilized to assess the inhibition of CA-catalyzed CO2 hydration activity. […] The assay employed 20 mM HEPES (pH 8.3) as a buffer and 20 mM Na2SO4 to maintain constant ionic strength. The investigation focused on the initial rates of the CA-catalyzed CO2 hydration reaction over a duration of 10–100 s. CO2 concentrations ranging from 1.7 to 17 mM were employed to determine kinetic parameters and inhibition constants. For each inhibitor, a minimum of six traces of the initial 5–10% of the reaction were utilized to determine the initial velocity. Uncatalyzed rates were determined in a similar manner and subtracted from the overall observed rates. Inhibitor stock solutions (0.1 mM) were initially prepared in distilled–deionized water, followed by subsequent dilutions up to 0.01 nM with the assay buffer. To allow for the formation of the E-I complex, inhibitor and enzyme solutions were preincubated together for 15 min at room temperature before the assay. The inhibition constants were derived through nonlinear least-squares methods using PRISM and the Cheng–Prusoff equation, as previously reported, representing the mean from at least three different determinations.

[2] = target: T2, MtCA1 (Mycobacterium tuberculosis, UniProt P9WPJ7); assay: biochemical; settings: for Selectivity Index (SI) hCA II/MtCA1: ratio of Ki values
T2 construct: made in house

[3] = target: hCA II; design: method as in PMID 31794211; settings: stopped-flow CO2 hydrase assay; cited from earlier work
[4] = target: hCA I; design: method as in PMID 31794211; settings: stopped-flow CO2 hydrase assay; cited from earlier work
[5] = target: MtCA3 (Mycobacterium tuberculosis, UniProt P96878); assay: biochemical; settings: for Selectivity Index (SI) hCA II/MtCA3: ratio of Ki values; for Ki: stopped-flow CO2 hydrase assay, mean from three assays
[6] = tested on: M. tuberculosis strain susceptible to rifampicin and isoniazid; assay: tuberculostatic activity assay, strain susceptible to rifampicin and isoniazid; type: cell-based, Mycobacterium tuberculosis; settings: for growth inhibition of mycobacteria (in words): 1 µg/mL; for number of M. tuberculosis colonies/standard inoculum volume (0.2 mL): 28 days, 37 °C
[7] = stopped-flow CO2 hydrase assay, mean from three assays, read-out: Ki MtCA1
[8] = 1 µg/mL in Lowenstein Jensen medium
[9] = 2 µg/mL in Lowenstein Jensen medium

T2 sequence (P9WPJ7 whole entry): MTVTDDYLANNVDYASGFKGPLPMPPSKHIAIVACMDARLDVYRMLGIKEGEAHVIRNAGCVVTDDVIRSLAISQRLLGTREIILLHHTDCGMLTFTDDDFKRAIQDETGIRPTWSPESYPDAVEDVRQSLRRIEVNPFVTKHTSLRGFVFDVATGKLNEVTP
MtCA3, sequence (P96878 550-764 limits assumed): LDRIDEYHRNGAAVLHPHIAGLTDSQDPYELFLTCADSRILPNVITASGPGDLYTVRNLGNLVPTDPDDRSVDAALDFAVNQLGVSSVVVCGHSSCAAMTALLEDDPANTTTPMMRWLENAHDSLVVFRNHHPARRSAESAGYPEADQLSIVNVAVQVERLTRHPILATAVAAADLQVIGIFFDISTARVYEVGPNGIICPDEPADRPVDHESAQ
T1 sequence (P9WPJ9 whole entry, looked up): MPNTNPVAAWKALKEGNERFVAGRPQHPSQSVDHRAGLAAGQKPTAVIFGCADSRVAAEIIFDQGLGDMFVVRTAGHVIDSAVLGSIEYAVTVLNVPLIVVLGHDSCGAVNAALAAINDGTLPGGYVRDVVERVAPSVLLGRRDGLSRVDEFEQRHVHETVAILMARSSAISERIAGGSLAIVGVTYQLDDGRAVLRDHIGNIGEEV

Structure (SMILES)	Ki [1]	Selectivity Index (SI) hCA II/MtCA2 [1]	Selectivity Index (SI) hCA II/MtCA1 [2]	Ki [2, 7]	Ki [3]	Ki [4]	Selectivity Index (SI) hCA II/MtCA3 [5]	Ki [5]	growth inhibition of mycobacteria (in words) [6]	number of M. tuberculosis colonies/standard inoculum volume (0.2 mL) [6, 8]	number of M. tuberculosis colonies/standard inoculum volume (0.2 mL) [6, 9]	Ki [2]
O=C1Nc2ccc(Br)cc2S(=O)(=O)N1 [2l]	200 ± 14 nM	11.8	0.8	2960 ± 213 nM	2360 nM	4400 nM	26.2	90.1 ± 6.7 nM				
Cc1cccc2c1NC(=O)NS2(=O)=O [2b]	58.5 ± 1.7 nM	2.5	0.1	1460 ± 101 nM	144 nM	969 nM	6.8	21.3 ± 1.7 nM				
Cc1ccc(C)c2c1NC(=O)NS2(=O)=O [2e]	2370 ± 167 nM	0.9	<0.2	> 10000 nM	2190 nM	2540 nM	1.4	1540 ± 91 nM				
Cc1ccc2c(c1)S(=O)(=O)NC(=O)N2 [2c]	41.3 ± 2 nM	21.1	0.8		872 nM	1070 nM	47.1	18.5 ± 1.6 nM	active	0 colonies	0 colonies	1050 ± 65 nM
CN1C(=O)NS(=O)(=O)c2ccccc21 [2o]	39.6 ± 2.1 nM	21.5	1.5	556 ± 37 nM	853 nM	3410 nM	26.2	32.5 ± 2.4 nM				
O=C1Nc2ccc(C(=O)O)cc2S(=O)(=O)N1 [2s]	223 ± 18 nM	30.4	1.4		6780 nM	> 10000 nM		101 ± 5 nM				4870 ± 315 nM
O=C1Nc2c(Br)cccc2S(=O)(=O)N1 [2k]	458 ± 25 nM	1.1	0.5	993 ± 33 nM	527 nM	2320 nM	6.4	82.4 ± 4.9 nM				
Cc1cc(C)c2c(c1)S(=O)(=O)NC(=O)N2 [2d]				934 ± 78 nM	764 nM	1270 nM		15.1 ± 0.9 nM	active	0 colonies	0 colonies	
O=C1Nc2ccc(F)cc2S(=O)(=O)N1 [2h]	42.5 ± 1.6 nM			1830 ± 137 nM	534 nM	1290 nM			active	0 colonies	0 colonies	
O=C1Nc2ccc(Cl)cc2S(=O)(=O)N1 [2j]	67.1 ± 4.3 nM	17.0	0.5	2460 ± 174 nM	1140 nM	1860 nM	28.7	39.8 ± 2.2 nM				
O=C1Nc2c(F)cccc2S(=O)(=O)N1 [2g]	62.9 ± 2.5 nM	2.2	0.1	1290 ± 96 nM	140 nM	547 nM	8.6	16.2 ± 1.1 nM				
COc1ccc2c(c1)S(=O)(=O)NC(=O)N2 [2m]	152 ± 11 nM	12.6	0.7	2760 ± 166 nM	1920 nM	3810 nM	32.5	59.2 ± 4.2 nM				
CN1C(=O)NS(=O)(=O)c2cc(Cl)ccc21 [2p]	135 ± 9 nM	17.3	2.0	1180 ± 75 nM	2340 nM	> 10000 nM	50.8	46 ± 3.3 nM				
CC(=O)Nc1nnc(S(N)(=O)=O)s1 [AAZ, acetazolamide, reference compound]									active	0 colonies	0 colonies	
O=C1Nc2ccc(O)cc2S(=O)(=O)N1 [2t]	58.4 ± 4.1 nM	51.8	1.3	2390 ± 126 nM	3020 nM	1890 nM	66.3	45.6 ± 3.5 nM		30–100 colonies	0 colonies	
CC(=O)/N=c1/sc(S(N)(=O)=O)nn1C [MTZ, reference compound]										30–100 colonies	0 colonies	
Cc1cc(C)c2c(c1)NC(=O)NS2(=O)=O [2f]	4480 ± 277 nM	0.7	<0.3	> 10000 nM	2940 nM	1920 nM	1.3	2250 ± 168 nM				
O=C1Nc2c(C(=O)O)cccc2S(=O)(=O)N1 [2r]	105 ± 6 nM	23.2	0.7	3280 ± 204 nM	2450 nM	5780 nM	37.4	65.4 ± 3.9 nM				
O=C1Nc2c(Cl)cccc2S(=O)(=O)N1 [2i]	214 ± 13 nM	3.2	0.5	1500 ± 89 nM	686 nM	930 nM	15.5	44.3 ± 2.9 nM				
O=C1Nc2c(ccc3ccccc23)S(=O)(=O)N1 [2n]	995 ± 35 nM	0.5	0.5	1040 ± 41 nM	484 nM	2070 nM	4.0	120 ± 8 nM				
O=C1NS(=O)(=O)c2cccc3c2N1CC3 [2q]	599 ± 31 nM	1.8	1.2	883 ± 24 nM	1060 nM	6860 nM	13.9	76.2 ± 5.6 nM				
